From US8932613B2, “Ectoparasite control method” (E I du Pont de Nemours and Company, priority 2007, dated 2015) come the findings set out here.

In one test the test system is Adult A. aegypti. Nature of the test: Adult A. aegypti contact assay. The conditions noted are these: treated flask base, bioassay run for 8 hrs. Here is the method:
Adult A. aegypti were exposed to six rates of the positive control compound permethrin and the experimental compounds diluted with acetone. The dilutions of test compound (3-bromo-1-(3-chloro-2-pyridinyl)-N-[4-cyano-2-methyl-6-[(methylamino)carbonyl]phenyl]-1H-pyrazole-5-carboxamide)used were 0 ppm (acetone only), 0.1 ppm, 1 ppm, 10 ppm, 20 ppm, 50 ppm, 100 ppm, 500 ppm and 1000 ppm. Each rate was replicated 5 times. The test was conducted in 100 mL conical flasks. The entire inside of the flasks was coated with Coatasil the day before the treatments are applied. A 0.5 ml aliquot of each rate was applied to the bases only of the flasks. At 24 hours after the surfaces had been treated adult A. aegypti were anaesthetised using food grade carbon dioxide and 10 mosquitoes were introduced to each conical flask and the mouths of the flasks covered with parafilm. Small holes were made in the parafilm to allow gas exchange. The bioassay was run for 8 hrs at 25±2° C. and relative humidity of approximately 70%.

In test [1] the test system is Brown Dog Ticks (R. sanguineus). Nature of the test: In vivo evaluation against artificial infestations with brown dog ticks on dogs. The conditions noted are these: topical, test compound 60 mg/kg line-on in NMP, 9 days post-treatment. From the text:
Twenty five dogs were used in this study that investigated the efficacy of test compound (3-bromo-1-(3-chloro-2-pyridinyl)-N-[4-cyano-2-methyl-6-[(methylamino)carbonyl]phenyl]-1H-pyrazole-5-carboxamide)
against fleas and ticks. Two groups (one treated and one untreated) of five dogs were used to evaluate the flea efficacy whilst two groups of five dogs (one treated and one untreated) were used to investigate the tick efficacy. The dogs in the respective groups were infested weekly with 40 unfed adult ticks and 100 cat fleas. One group was treated with ADVANTIX and served as a positive control. The dogs in this group were infested simultaneously with fleas and ticks. Test compound was formulated in NMP. The treatment was applied topically via syringe on the dorsal line of the animals as a line-on at 60 mg/kg dose rate. The efficacy of the compound was assessed by weekly tick and flea counts. The weekly counts generated in the treated groups were compared to the positive and negative untreated control (UTC) group counts to evaluate efficacy of Test compound.

For test [2], the system named is cat flea (Ctenocephalides felis Bouche). Nature of the test: In vivo evaluation against artificial infestations with cat fleas on mice. The conditions noted are these: CD-1 mouse, 10 mg/kg oral in propylene glycol/glycerol formal (60:40), fleas applied 2 h after dosing, evaluated 48 hours after flea application. Here is the method: For evaluating control of the cat flea (Ctenocephalides felis Bouche), a CD-1® mouse (about 30 g, male, obtained from Charles River Laboratories, Wilmington, Mass.) was orally dosed with test compound in an amount of 10 mg/kg solubilized in propylene glycol/glycerol formal (60:40). Two hours after oral administration of the test compound, approximately 8 to 16 adult fleas were applied to each mouse. The fleas were then evaluated for mortality 48 hours after flea application to the mouse.

For the next test, the system named is adult H. irritans exigua. Nature of the test: Adult H. irritans exigua feeding assay (blood meal assay). The conditions noted are these: for mortality at 0.2 ppm: 200 ppb in bovine blood; for mortality at 0.4 ppm: 400 ppb in bovine blood; for mortality at 0.6 ppm: 600 ppb in bovine blood. On the procedure:
A blood meal assay was used to determine the LC50 for test compound (3-bromo-1-(3-chloro-2-pyridinyl)-N-[4-cyano-2-methyl-6-[(methylamino)carbonyl]phenyl]-1H-pyrazole-5-carboxamide) on adult H. irritans exigua. Six (6) serial dilutions of the test compound were prepared in decoagulated bovine blood that was stored refrigerated. Ivermectin was included as a positive control compound and a negative control was included in each assay. Flies were collected with a net immediately before each assay from yarded commercial cattle. About 100 adults were introduced into a mesh cage (30×30×30 cm) containing one cotton gauze (4×4×1 cm) soaked in one blood/insecticide concentration. There were 3 replicate cages of each blood/insecticide concentration. Blood gauzes were replaced every 12 hours. The untreated control cages received untreated decoagulated blood. All cages were labelled and stored for 72 hours at 25-27° C. in the dark at ambient relative humidity (70-85%). […] At 72-96 hours all flies were counted and percentage mortality was calculated. Data was subjected to log-probit analysis to determine the LC50 if there is a dose response in the assay.

Take `CC1(C)C(C=C(Cl)Cl)C1C(=O)OCc1cccc(Oc2ccccc2)c1` (stereo not shown) [Permethrin, reference compound]: the LC90 with Adult A. aegypti was 0.046 ug/flask.

For orientation: mortality means the share of the test organisms that died. Consider `CNC(=O)c1cc(C#N)cc(C)c1NC(=O)c1cc(Br)nn1-c1ncccc1Cl` [Test compound, 3-bromo-1-(3-chloro-2-pyridinyl)-N-[4-cyano-2-methyl-6-[(methylamino)carbonyl]phenyl]-1H-pyrazole-5-carboxamide], for which the efficacy against ticks entry in test [1] is recorded as “over 94.9%”. The same molecule had a flea mortality in test [2] of 45%. Besides, the LC90 in the test on Adult A. aegypti amounted to 0.033 ug/flask. In the test on adult H. irritans exigua (exposure time 7 hr), this molecule returned a mortality at 0.2 ppm of 77.3%, a mortality at 0.4 ppm of 78.8% and a mortality at 0.6 ppm of 80.5%. In the test on adult H. irritans exigua (exposure time 17 hr), this molecule gave a mortality at 0.2 ppm of 78.8%, a mortality at 0.4 ppm of 89.8% and a mortality at 0.6 ppm of 94.7%. In the test with adult H. irritans exigua (exposure time 24 hr), this molecule registered a mortality at 0.2 ppm of 80.3%, a mortality at 0.4 ppm of 94.9% and a mortality at 0.6 ppm of 96.5%.
